Assay results from US20120252894A1, “COMPOUNDS FOR ALLEVIATING PAIN AND STRESS IN FETUS AND NEWBORN” (priority 2011, published 2012).
Where a SMILES comes first, the peptide text is derived from it. Bridges are numbered along the chain shown (N, C = ends). [ ]: non-standard residue; d: D form. Orn = NCCC[C@H](N)C(=O)O; Mpa = O=C(O)CCS

Key:
newborn rats = assay: Thermal tail-flick assay (tail immersion, 50° C. water); assay type: in vivo, rat; settings: for change in tail withdrawal delay: P0 rats, atosibane 2 μg/kg or SSR126768A 1 μg/kg intraperitoneal; for change in tail-flick delays: P2 rats, oxytocin receptor blockers; for reversal of the effect of oxytocin receptor blockers on tail-flick: newborn rats
Description: Pregnant and maternal Wistar rats were housed with a 12-h light-dark-cycle, at 24°±1° C., and food and water ad libitum. The day of birth was considered 0 day old (P0). Experiments on P0 rats (male and female) were performed within two hours after birth.
The pup was held in a box with a hole allowing the tail to protrude from it. The inner surface of the box was covered with an aluminum sheet forming an electrical contact with the rat body. The electrical circuit via the sheet, body, tail and water bath was powered by a 1.5 V battery and its connection and disconnection could be easily detected upon the tail immersion and withdrawal from the water, respectively. Electrical signals were digitized at 1 kHz using a Digidata 1200 and recorded to a computer. The distal tip of the tail was lowered into the water bath (50° C.). Latency to withdrawal was recorded as the “pain” parameter, with a 15-second maximum allowable threshold. After three habituation tests, the latency to withdrawal was determined from the average of three consecutive measurements.
We first tested pain sensitivity in the newborn rats using a thermal tail-flick response. In this test, pain sensitivity is reciprocal to the delay in tail withdrawal from the hot water. […] We studied thermal tail-flick response in two age groups: (i) fresh newborn animals which were examined immediately, within an hour, after birth (P0) and (ii) two day-old rat pups (P2). […] We further studied whether endogenous oxytocin is involved in reduced pain in the newborn rats. To block the action of endogenous oxytocin circulating in the newborn pups we used selective blockers of oxytocin receptors atosibane (2 μg/kg, intraperiotoneal) and SSR126768A (1 μg/kg, intraperiotoneal).

[1] = system: isolated spinal cord preparations; assay: Primary afferents depolarization (DR-DRPs) in isolated spinal cord; parameters: species or system rat
Description: Experiments were performed on lumbar (L) spinal cord preparations isolated from neonatal Wistar rats (P0-P1). All efforts were made to reduce the number of animals used and to minimize animal suffering. The experimental setup was the same as described previously (Taccola and Nistri, 2004). The spinal cord was superfused (5 ml min-1) with Krebs solution of the following composition (in mM): NaCl, 113; KCl, 4.5; MgCl2×7H2O, 1; CaCl2, 2; NaH2PO4, 1; NaHCO3, 25; glucose, 11; gassed with 95% O2-5% CO2; pH 7.4 at room temperature. All agents were bath-applied via the superfusing solution at the concentrations mentioned in the text. Recordings were obtained with glass suction electrodes (containing an Ag—AgCl pellet) filled with Krebs solution. Miniature bipolar suction electrodes were used in order to deliver single or repetitive electrical stimuli to DRs to evoke DR-DR potentials (DR-DRPs) (Kerkut and Bagust, 1995). Stimulus intensity was calculated in terms of threshold (Th), defined as the minimum intensity to elicit a detectable response in the homolateral VR.
Depolarizing action of GABA on the axons of primary afferents underlies primary afferents depolarization (PAD), that is a depolarizing response evoked by dorsal root stimulation in the neighboring dorsal root (Willis, 2006; Rudomin and Schmidt, 1999). Therefore, in the next experiments we have studied the effect of oxytocin on PAD in the in vitro isolated spinal cord preparations obtained from newborn rats.

neonatal rats = assay: Vocalization evoked by electrical stimulation of the whisker pad in decerebrated rat pups; assay type: in vivo
Description: Under isoflurane (1.5%) anaesthesia, rat pups were implanted with bipolar electrodes into the whisker pad and decerebrated at the upper pons level via a hole drilled 1 mm posterior to lambda using blunted 36 gouge needle, to avoid blood bleeding the hole was covered by cyanoacrylate after. After 10 min (P0) or one hour (P1-2 pups) of recovery period, the pups were wrapped by cotton and placed on the thermal blanket (38° C.). Whisker pad was stimulated by electrical train pulses (1 ms pulse duration, 5-25 V amplitude, 50 Hz, 1 minute inter-train interval). Vocalization response was recorded by microphone, digitized at 10 kHz using Digidata 1440 interface (Axon Instruments) and analyzed offline using Matlab (MathWorks, Natick, Mass.). To quantify the vocalization response, we calculated scalar integral (□) as following: (i) raw acustogram was converted to scalar acustogram by inverting all negative values to positive values; (ii) scalar acustogram was corrected for the baseline activity level by subtraction of the mean scalar acustogram value calculated during 1 minute before stimulation; (iii) scalar acustogram integral was calculated as cumulative, corrected for the baseline, scalar acustogram during 5 sec after stimulation.
In the experiments in vivo, Oxytocin (Sigma) 50 μM was injected at 0.1 ml/5 g (diluted in saline) IP, 30 min before testing. Bumetanide (Sigma) solution 25 μg/ml was injected IP at the dose of 5 μmol/kg, 30 min before testing. Atosiban (Sigma) (diluted in saline) was injected at 2 μg/kg, IP, 30 min before testing. SSR126768A (gift from Sanofi-Synthelabo) diluted in saline injected at 1 mg/kg IP, 30 min before testing. Sham injections in the control group were performed with equal volumes of saline.
In the second experiment, we studied oxytocin-modulation of the pain responses by measuring vocalization evoked by electrical stimulation of the whisker pad. Animals were decerebrated at caudal midbrain levels to cut the descending oxytocin projections from the VPN to spinal cord and to prevent noxious input to the brain. Electrical stimulation of the whisker pad evoked vocalization in the neonatal rats despite of decerebration. Vocalizing response was composed of several bursts with a dominant frequency in the range from 2.7 to 5 kHz (mean frequency 3.9±0.1 kHz n=24, rat P0-2). To quantify vocalization response, we calculated scalar acusticogram integral. In agreement with the results of the thermal tail-flick assay, oxytocin receptor blocker atosiban (2 μg/kg) increased vocalization response in the fresh newborn P0 rats (to 155±28%, n=8, p=0.0003;). […]

[2] = system: trigeminal sensory neurons; assay: Calcium imaging of GABA-evoked intracellular calcium increases; assay type: cell-based, rat; settings: oxytocin 1 μM; for GABA-evoked intracellular calcium increases: trigeminal neurons from newborn rats, five hours in vitro
Description: Trigeminal sensory neurons were obtained from P0 rats. Animals were anesthetized by CO2 and decapitated. Trigeminal ganglia were excised and enzymatically dissociated in F12 medium containing 0.25 mg/ml trypsin, 1 mg/ml collagenase and 0.2 mg/ml DNAse (Sigma) at 37° C. Cells were plated on poly-1-lysine-coated Petri dishes in F12 medium with 10% fetal calf serum and examined 5 hours after plating. For Ca2+ imaging experiments cells were incubated for 40 min at 20-22° C. in physiological solution containing Fluo3 (AM ester cell-permeable compound; 1 μM; Molecular Probes), followed by a 30 min washout period. Fluorescence emission was detected with a Cell-R imaging system (Olympus, Hamburg, Germany). Images were acquired with 200 ms exposure time and single cell responses were analyzed with the Cell-R software. All drugs were applied via fast perfusion system (RDS-200, BioLogic Science Instruments Grenoble, France). Only cells with two stable control GABA transients were taken into analysis. Intracellular Ca2+ transients were expressed as percent amplitude increase (ΔF/F0, where F0 is the baseline fluorescence level and ΔF is the increment over baseline). Ca2+ transient intensity data was exported and then analyzed off-line using Excel and Origin (version 8.0) software. Significance was analyzed by non-parametric Mann-Witney test.
Because analgesic action of oxytocin in adult rats involves modulation of GABAergic control of the primary nociceptive afferents (Condes-Lara et al., 2009), we studied the effect of oxytocin on GABA responses in sensory trigeminal neurons, which detect noxious stimuli and conduct them to the spinal cord. Experiments were performed in primary cultures of trigeminal neurons dissociated from newborn rats and kept for five hours in vitro. In keeping with previous observations (Wang et al., 1994; Reichling et al., 1994), activation of GABA receptors induced robust transient increases of intracellular calcium in trigeminal neurons indicating depolarizing action of GABA and calcium entry into the cells via voltage-gated calcium channels. […]

TRPV1 receptors = target: T1, TRPV1 receptors (Rattus norvegicus, UniProt O35433); assay: Calcium imaging of capsaicin-evoked responses in DRG neurons; assay type: cell-based
T1 construct: endogenous in cells; host or cells: acutely dissociated primary sensory neurons (trigeminal ganglia per methods; called DRG neurons in results) from P0 rats

P2X3 receptor = target: T2, P2X3 receptor (Rattus norvegicus, UniProt P49654); assay: Calcium imaging of α-β-meATP-evoked responses in DRG neurons; assay type: cell-based
T2 construct: endogenous in cells; host or cells: acutely dissociated primary sensory neurons (trigeminal ganglia per methods; called DRG neurons in results) from P0 rats
T2 sequence (P49654 1-397): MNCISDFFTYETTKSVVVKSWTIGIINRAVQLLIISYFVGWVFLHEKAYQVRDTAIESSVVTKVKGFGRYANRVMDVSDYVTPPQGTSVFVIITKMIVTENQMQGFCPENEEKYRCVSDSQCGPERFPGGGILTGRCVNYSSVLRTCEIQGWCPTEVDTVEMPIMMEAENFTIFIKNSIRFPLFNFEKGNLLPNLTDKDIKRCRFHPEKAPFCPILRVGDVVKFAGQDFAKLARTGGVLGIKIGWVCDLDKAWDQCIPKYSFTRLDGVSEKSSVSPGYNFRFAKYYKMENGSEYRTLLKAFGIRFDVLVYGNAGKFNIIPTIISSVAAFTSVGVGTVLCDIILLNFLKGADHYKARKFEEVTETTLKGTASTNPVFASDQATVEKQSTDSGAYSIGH

GABA(A) channels = assay: Cell-attached single GABA(A) channel recordings (GABA driving force); assay type: cell-based, rat; settings: immature trigeminal neurons; oxytocin 1 μM (control 38.7±2.4 mV)
Description: Single GABA channel recordings were performed from the trigeminal sensory neurons prepared as described above. Cell attached patch-clamp recordings were performed using Axopatch 200A (Axon Instruments, Union City, Calif.) and EPC-9 (HEKA Elektronik Dr. Schulze GmbH, Lambrecht/Pfalz, Germany) amplifiers. Patch electrodes were made from borosilicate glass capillaries (GC150F-15, Clark Electromedical Instruments). For recordings of single GABA(A) channels, patch pipette solution contained (in mM): NaCl 120, TEA-Cl 20, KCl 5, 4-aminopyridine 5, CaCl2 0.1, MgCl2 10, glucose 10, Hepes-NaOH 10 buffered to pH 7.2-7.3 and GABA (1-5 μM) was added at the day of experiment from 1 mM frozen stock solution. Driving force for GABA(A) receptor mediated currents was determined from the current-voltage relationships of the currents through single GABA(A) channels single as described earlier (Tyzio et al., 2006) and corrected for an error of 2 mV (Tyzio et al., 2008).
DFGABA was deduced from reversal potential of the currents via GABA(A) channels (Serafini et al., 1995; Tyzio et al., 2006; Tyzio et al., 2008). In control conditions, GABA exerted strongly depolarizing action on the immature trigeminal neurons with DFGABA of 38.7±2.4 mV (n=6). In the presence of oxytocin (1 μM), DFGABA reduced to 17.7±6.7 mV (n=5; P<0.05).

[3] = newborn rats, drug alone (oxytocin 1 μM; atosiban 10 μM)
[4] = recordings between 12 and 24 hours after birth, atosiban 10 μM, oxytocin

T1 sequence (O35433 whole entry): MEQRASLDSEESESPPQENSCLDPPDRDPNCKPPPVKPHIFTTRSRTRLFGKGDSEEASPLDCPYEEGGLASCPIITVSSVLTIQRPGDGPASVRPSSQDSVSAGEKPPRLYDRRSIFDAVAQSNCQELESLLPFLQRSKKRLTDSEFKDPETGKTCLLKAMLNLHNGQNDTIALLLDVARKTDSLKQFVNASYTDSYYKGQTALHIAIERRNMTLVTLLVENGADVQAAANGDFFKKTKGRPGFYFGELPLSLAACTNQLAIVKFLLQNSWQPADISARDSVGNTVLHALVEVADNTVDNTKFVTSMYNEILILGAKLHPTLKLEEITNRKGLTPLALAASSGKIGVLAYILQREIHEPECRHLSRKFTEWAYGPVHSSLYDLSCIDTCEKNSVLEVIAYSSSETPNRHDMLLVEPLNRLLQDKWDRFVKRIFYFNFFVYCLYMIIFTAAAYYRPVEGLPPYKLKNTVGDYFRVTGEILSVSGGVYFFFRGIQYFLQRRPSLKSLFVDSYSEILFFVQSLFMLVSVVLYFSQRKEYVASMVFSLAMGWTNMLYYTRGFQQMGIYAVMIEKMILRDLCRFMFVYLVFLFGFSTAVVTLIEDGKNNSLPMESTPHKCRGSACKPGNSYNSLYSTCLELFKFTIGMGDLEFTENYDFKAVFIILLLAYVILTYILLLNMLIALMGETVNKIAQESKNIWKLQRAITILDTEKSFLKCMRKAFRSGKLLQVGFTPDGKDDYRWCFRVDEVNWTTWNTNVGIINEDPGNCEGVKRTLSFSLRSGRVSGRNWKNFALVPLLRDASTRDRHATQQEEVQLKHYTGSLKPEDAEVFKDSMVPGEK

SMILES | change in tail withdrawal delay (newborn rats) | change in tail-flick delays (newborn rats) | peak of DR-DRPs, % of control [1, 3] [%] | peak of DR-DRPs, % of control [1, 4] [%] | vocalization response (scalar acusticogram integral) (neonatal rats; P1-2 rats, drug alone) [%] | reversal of the effect of oxytocin receptor blockers on tail-flick (newborn rats) | GABA-evoked intracellular calcium increases [2] | other results
CCN(Cc1cccnc1)C(=O)c1ccc(Cl)c([C@]2(C)C(=O)N(Cc3ccc(OC)cc3OC)c3ccc(Cl)cc32)c1 [SSR126768A] | nearly three-fold acceleration in the tail withdrawal | did not significantly modify the tail-flick delays | – | – | – | – | – | –
CCOc1ccc(C[C@H]2NC(=O)CCSSC[C@@H](C(=O)N3CCC[C@H]3C(=O)N[C@@H](CCCN)C(=O)NCC(N)=O)NC(=O)[C@H](CC(N)=O)NC(=O)[C@H]([C@@H](C)O)NC(=O)[C@H]([C@@H](C)CC)NC2=O)cc1 [atosiban] ([Mpa][dY](Et)ITNCP[Orn]G-NH2; disulfide 1-6) | nearly three-fold acceleration in the tail withdrawal | did not significantly modify the tail-flick delays | 112.7±9.1 | 90.0±9.8 | – | – | – | peak of DR-DRPs, % of control ([1]; atosiban 10 μM added to oxytocin 1 μM): 106.0±20.8%; vocalization response (scalar acusticogram integral) (neonatal rats; P0 rats, atosiban 2 μg/kg): 155±28%; vocalization response, from control level (neonatal rats; P1-2 rats, atosiban on top of exogenous oxytocin): 84±38%
CCCCNc1cc(C(=O)O)cc(S(N)(=O)=O)c1Oc1ccccc1 [bumetanide] | – | – | – | – | 72±16 | reversed the effect of oxytocin receptor blockers | suppressed the GABA receptor mediated increases in intracellular calcium | peak of DR-DRPs, % with respect to control values ([1]; bumetamide 20 μM added to atosiban 10 μM): 66.6±13.8%; tail-flick responses (newborn rats; bumetanide 10 μM/kg, both age groups (P0 and P2)): strongly delayed the tail-flick responses
COc1cc(CNC(=O)CCCC/C=C/C(C)C)ccc1O [capsaicin] | – | – | – | – | – | – | – | Ca2+ response evoked by agonist (TRPV1 receptors; 200 nM, 2 s pulses at 10 min intervals): evoked transient, and quite stable Ca2+ increases
CC[C@H](C)[C@@H]1NC(=O)[C@H](Cc2ccc(O)cc2)NC(=O)[C@@H](N)CSSC[C@@H](C(=O)N2CCC[C@H]2C(=O)N[C@@H](CC(C)C)C(=O)NCC(N)=O)NC(=O)[C@H](CC(N)=O)NC(=O)[C@H](CCC(N)=O)NC1=O [oxytocin] | – | – | 93.6±5.6 | 77.8±21.6 | 41±12 | partially reverse the effects of the competitive oxytocin receptor blockers | significantly reduced GABA-evoked calcium increases | amplitude of α-β-meATP (10 μM) evoked Ca2+ responses (P2X3 receptor; 1 μM-OT for 20-30 min): did not significantly change the amplitude; GABA driving force (DFGABA) (GABA(A) channels): 17.7±6.7 mV; amplitude of capsaicin (200 nM) evoked Ca2+ responses (TRPV1 receptors; 1 μM-OT for 20-30 min): did not significantly change the amplitude; analgesic effect in tail-flick test (newborn rats; exogenous oxytocin 1 μg/kg systemic, newborn and P2 rats): dramatic analgesic effect; duration of slow transient responses induced by the drug ([2]; not shown): 60 to 80 s
Nc1ncnc2c1ncn2[C@@H]1O[C@H](COP(=O)(O)CP(=O)(O)OP(=O)(O)O)[C@@H](O)[C@H]1O [α-β-methylenATP] | – | – | – | – | – | – | – | Ca2+ response evoked by agonist (P2X3 receptor; 10 μM, 2 s pulses at 10 min intervals): evoked transient, and quite stable Ca2+ increases
